Experiments:
TNFα = TNFα ELISA in 3D EngNT supernatants; format: cell-based, rat; settings: GGF 200 ng/mL pretreatment, 24 h
From the text: TNF-α levels in 3D EngNT supernatants were quantified using the TNF-α ELISA Kit (Merck Life Science, Rome, Italy). The results were obtained using a calibration curve (range: 24.58–6000 pg/mL).

[1] = system: 3D EngNT (RSC96/PC12 co-culture); assay: MTT cell viability in 3D EngNT under demyelination (GGF 200 ng/mL); format: cell-based, rat; settings: GGF 200 ng/mL pretreatment, 24 h with intestinal metabolites
Procedure: RSC96, a rat-derived Schwann cell line (purchased from ATCC), was cultured in Adv DMEM (Thermo Fisher Scientific, Rodano, MI, Italy) containing 1% penicillin-streptomycin, 2 mM L-glutamine, and 5% FBS [46]. The culture was maintained at 37 °C with 5% CO2 and 95% humidity in a 37 °C incubator. Experiments utilised RSC96 cells from passages 10 to 15, which were sub-cultured two or three times weekly.
The ATCC rat neural PC12 cell line was cultured in Advanced RPMI-1640 medium (Thermo Fisher Scientific, Rodano, MI, Italy). This medium contained 5% FBS, 5% horse serum (HS; Merck Life Science, Rome, Italy), and 2 mM glutamine. Cultures were maintained at 37 °C in a 5% CO2 environment with 95% humidity, ensuring they remained below confluency. Assays utilised cells between passages 3 and 13 [47]. PC12 cells are commonly used for in vitro neuroprotective chemical screening, being a suitable neuronal cell line. […]
A standard method described in the literature was employed to assess cell survival after each stimulation using the MTT-based In Vitro Toxicology Assay Kit (Merck Life Science, Rome, Italy). All solubilised materials, whether treated or untreated, were measured at 570 nm with a 690 nm correction using a spectrometer (Infinite 200 Pro MPlex, Tecan, Männedorf, Switzerland). […]

p75 = p75 (NGFR) ELISA in 3D EngNT lysates; format: cell-based, rat; settings: GGF 200 ng/mL pretreatment, 24 h
Procedure: 3[…] lysates were subjected to the Rat NGFR ELISA kit (MyBiosource, San Diego, CA, USA) in accordance with the product specifications. Quantification was obtained through a standard curve ranging from 0.312 to 20 ng/mL.

[2] = system: NaV 1.7, NaV 1.8, and GABA; assay: Nociception-related biomarker panel by ELISA in 3D EngNT (all markers together); format: cell-based, rat; settings: GGF 200 ng/mL pretreatment, 24 h
Procedure: Quantification was obtained through a standard curve ranging from 6 to 400 pg/mL. NaV 1.7 was quantified on 3[…] lysates using the SCN9A/Nav1.7 ELISA Kit (LifeSpan BioSciences, Lynnwood, WA, USA). OD was correlated with the standards' concentration (0.312 to 20 ng/mL) using a standard curve. On 3[…] lysates, the Mouse Sodium Channel Protein Type 10 Subunit Alpha (SCN10A) ELISA Kit (MyBiosource, San Diego, CA, USA) quantified NaV 1.8 [64]. Comparing colour intensity (OD) to standard concentration produced a standard curve.

ERβ = ERβ ELISA in 3D EngNT lysates; format: cell-based, rat; settings: GGF 200 ng/mL pretreatment, 24 h
Procedure: ERβ concentrations in 3[…] lysates were measured using the Rat ERβ ELISA Kit (Cloud-Clone, Houston, TX, USA).

NRG1 = settings: 3D EngNT, GGF 200 ng/mL pretreatment, 24 h
Procedure: Starting on day 14 of maturation, GGF at 200 ng/mL was added to the EngNT 3D model to damage peripheral neurons and remove substantial myelin [51]. 3D EngNT was then treated for 24 h with the intestinal metabolite of each previously collected sample.
All ELISA analyses were performed according to the manufacturers’ instructions using specific commercial kits for each biomarker. Absorbance was measured at 450 nm using a microplate reader (Infinite 200 ProMPlex, Tecan, Männedorf, Switzerland). For each assay, a standard calibration curve (range depending on the specific kit) was used to determine analyte concentrations.
NRG1 levels in 3D EngNT supernatants were measured using the FineTest NRG1 Rat ELISA Kit (Wuhan, China) [62].

[3] = system: 3D EngNT (RSC96/PC12 co-culture); assay: ROS production (cytochrome C reduction) in 3D EngNT; format: cell-based, rat; settings: GGF 200 ng/mL pretreatment, 24 h with intestinal metabolites
Procedure: In the EngNT in vitro model, superoxide anion release was assessed by measuring cytochrome C reduction. Superoxide dismutase and cytochrome C (from Merck Life Science, Rome, Italy) were incubated for 30 min with both treated and untreated cells. Absorbance at 550 nm was recorded using a spectrometer (Infinite 200 Pro MPlex, Tecan, Männedorf, Switzerland). The results, averaged over five tests performed in triplicate, are expressed as the mean ± standard deviation (%) of lower cytochrome C nanomoles per microgram of protein relative to the control (0 line).

MPZ = MPZ ELISA in 3D EngNT lysates; format: cell-based, rat; settings: GGF 200 ng/mL pretreatment, 24 h
Procedure: (§1) The MPZ content in 3D EngNT cell lysates was determined using the Rat ELISA kit (MyBiosource, San Diego, CA, USA). A standard curve with a range of 0.06 to 18 ng/mL was used to express the concentration as a percentage of ng/mL.

p75, MPZ, NRG1, and Erβ = assay: Neuroprotection biomarker panel by ELISA in 3D EngNT (all markers together); format: cell-based, rat; settings: for all markers (p75, MPZ, NRG1, ERβ); GGF 200 ng/mL pretreatment
Procedure: as §1
3D EngNT cell lysates were subjected to the Rat NGFR ELISA kit (MyBiosource, San Diego, CA, USA) in accordance with the product specifications. Quantification was obtained through a standard curve ranging from 0.312 to 20 ng/mL.
ERβ concentrations in 3D EngNT lysates were measured using the Rat ERβ ELISA Kit (Cloud-Clone, Houston, TX, USA). The result was given as % ng/mL against a 0.312–20 ng/mL standard curve.

Row | Molecule | TNFα production (result in words) (TNFα) | cell viability (result in words) [1] | p75 signal (result in words) (p75) | nociception-related markers NaV 1.7, NaV 1.8, GABA (result in words) [2] | Erβ levels (result in words) (ERβ) | NRG1 levels (result in words) (NRG1) | ROS production, antioxidant response (result in words) [3] | MPZ levels (result in words) (MPZ) | permeability compared to the control (Caco-2 cells; at 4 h, fluorescent tracer, normalised to control) [%] | permeability (result in words) (Caco-2 cells; individual agents, 1–6 h) | reduction of marker levels compared to the control condition (p75, MPZ, NRG1, and Erβ)
1 | O=c1ccn([C@@H]2O[C@H](COP(=O)(O)O)[C@@H](O)[C@H]2O)c(=O)[nH]1 [UMP, Uridine monophosphate] | most pronounced reduction, superior to ALA | effects even more similar | comparable to ALA | neuroprotective and hypothetically anti-nociceptive effects | – | – | – | – | – | – | –
2 | N[C@@H](CCC(=O)N[C@@H](CS)C(=O)NCC(=O)O)C(=O)O [GSH, Glutathione] | – | almost as strong as ALA and vitamin B6 | comparable to ALA | neuroprotective and hypothetically anti-nociceptive effects | comparable to ALA and better than vitamin B6 | more biological effects than ALA and vitamin B6 alone | more pronounced reduction | stronger, more noticeable impact than ALA and vitamin B6 | – | – | –
3 | CC(=O)N[C@@H](CS)C(=O)O [NAC, N-Acetylcysteine] | effect slightly inferior to ALA | – | – | neuroprotective and hypothetically anti-nociceptive effects | comparable to ALA and better than vitamin B6 | – | greatest effect compared to ALA and vitamin B6 | stronger, more noticeable impact than ALA and vitamin B6 | 51 | highest permeability of all agents | –
4 | glial growth factor 2 [GGF] | – | – | – | – | – | – | – | – | – | – | about 10%
